Assay results published in patent US20240277799A1, “Translational Activators, Including Methods of Discovery and Uses Thereof” (The Board of Trustees of the Leland Stanford Junior …, priority 2023, published 2024).

How the values were obtained:
[1] = tested on: A459 cells transfected with a control siRNA (siCTRL); assay: global protein synthesis in control cells (siCTRL); type: cell-based; conditions: siCTRL cells with normal global synthesis; FIGS. 4A-4D
Description: FIGS. 2A-2D provide data and a schematic of an example of a screening method to discover and/or identify translational activators. In this example, cells with decreased global protein synthesis via small interfering RNA (siRNA) knockdown of an RP are cultured within a multi-well format. Each well of cultured cells is contacted with a compound and then examined for global protein synthesis. Compounds that increased global protein synthesis were considered a putative translational activator for further examination. To begin, cells are prepared (FIG. 2B). In some embodiments, cells having decreased global protein translation are cultured. It should be understood that any cells can be assessed and it is not required that the cells have decreased global protein translation, but cells with decreased global protein translation may improve identification of translational activators. […] If using a pooling strategy, hits can be further assessed to delineate which compound (or combination of compounds) yield the beneficial effect. Compounds can be assessed at a single concentration, or multiple concentrations. […] For high-throughput assessments, multiple cell cultures (e.g., multiple wells) can be assessed concurrently, each cell culture provided with the same conditions except for the compound (or concentration thereof) utilized to contact the cells of the culture. […]

[2] = tested on: A459 cells transfected with siRNA targeting RPL11 (siRPL11); assay: global protein synthesis in cells with insufficient global protein synthesis (siRPL11); type: cell-based; conditions: FIGS. 4A-4D; for concentrations that increase protein synthesis, fold lower as compared to erythromycin: siRPL11 cells
Description: FIGS. 2A-2D provide data and a schematic of an example of a screening method to discover and/or identify translational activators. In this example, cells with decreased global protein synthesis via small interfering RNA (siRNA) knockdown of an RP are cultured within a multi-well format. Each well of cultured cells is contacted with a compound and then examined for global protein synthesis. Compounds that increased global protein synthesis were considered a putative translational activator for further examination.
To begin, cells are prepared (FIG. 2B). In some embodiments, cells having decreased global protein translation are cultured. It should be understood that any cells can be assessed and it is not required that the cells have decreased global protein translation, but cells with decreased global protein translation may improve identification of translational activators. In some embodiments, the cells are known to have a wild-type p53 sequence, which can reduce cofounding factors. Culturing of cells can be in plates, tubes, flasks, and/or any other appropriate container. High throughput methods can use multi-well plates (e.g., 96-well, 384-well, 1536-well, etc.) or any other means for dividing a cell culture into multiple populations.
In some embodiments, the cells that are cultured are manipulated to decrease global translation. In some embodiments, cells are manipulated by reducing expression of or inhibiting functionality of a ribosomal subunit. Examples of ribosomal subunits that can be targeted include (but are not limited to) RPL5, RPL11, RPS6, and RPS19, each of which are involved in various ribosomopathies. One method to reduce ribosomal subunit expression is knockdown via antisense and/or RNA interference (RNAi) technology. […] The example method within FIG. 2B utilizes reverse transfection in which double-stranded siRNA complexes are preformed and transfected into the cells, which are then cultured.
Upon preparing the cells, the cells are then treated with compounds (FIG. 2C). In some embodiments, cultured cells are contacted with a compound to assess their effect on global protein translation. […] If using a pooling strategy, hits can be further assessed to delineate which compound (or combination of compounds) yield the beneficial effect. Compounds can be assessed at a single concentration, or multiple concentrations. […] For high-throughput assessments, multiple cell cultures (e.g., multiple wells) can be assessed concurrently, each cell culture provided with the same conditions except for the compound (or concentration thereof) utilized to contact the cells of the culture.
After a period of incubating the cell culture with a compound, global protein production can be assessed (FIG. 2D). Any readout for measuring protein synthesis can be utilized. […]

[3] = cellular toxicity, relative total cell count against concentration; conditions: at concentrations that improve protein synthesis; FIG. 5
Description: Specifically, FIG. 5 illustrates relative total cell count is plotted against the concentration provided.

Compound	increase of protein synthesis in control cells [1]	concentrations that increase protein synthesis, fold lower as compared to erythromycin [2] [fold]	cellular toxicity (relative total cell count) [3]	ability to increase protein synthesis ([2]; siRPL11 cells having insufficient global protein synthesis)
CC[C@H]1OC(=O)[C@H](C)[C@@H](O[C@H]2C[C@@](C)(OC)[C@@H](O)[C@H](C)O2)[C@H](C)[C@@H](O[C@@H]2O[C@H](C)C[C@H](N(C)C)[C@H]2O)[C@](C)(O)C[C@@H](C)CN(C)[C@H](C)[C@@H](O)[C@]1(C)O [azithromycin]	increased protein synthesis in control cells	10	–	–
CC[C@H]1OC(=O)[C@@](C)(F)C(=O)[C@H](C)[C@@H](O[C@@H]2O[C@H](C)C[C@H](N(C)C)[C@H]2O)[C@](C)(OC)C[C@@H](C)C(=O)[C@H](C)[C@H]2N(CCCCn3cc(-c4cccc(N)c4)nn3)C(=O)O[C@]12C [solithromycin]	–	10	little to no toxicity	–
CC[C@H]1OC(=O)[C@H](C)C(=O)[C@H](C)[C@@H](O[C@@H]2O[C@H](C)C[C@H](N(C)C)[C@H]2O)[C@](C)(OC)C[C@@H](C)C(=O)[C@H](C)[C@H]2N(CCCCn3cnc(-c4cccnc4)c3)C(=O)O[C@]12C [telithromycin]	–	10	–	–
CC[C@H]1OC(=O)[C@H](C)[C@@H](O[C@H]2C[C@@](C)(OC)[C@@H](O)[C@H](C)O2)[C@H](C)[C@@H](O[C@@H]2O[C@H](C)C[C@H](N(C)C)[C@H]2O)[C@](C)(O)C[C@@H](C)C(=O)[C@H](C)[C@@H](O)[C@]1(C)O [erythromycin]	–	–	–	increased protein synthesis at high concentrations
